# Experimental data reported in patent publication US10166225B2, “Method for treating osteoporosis” (Exelixis, Inc., priority 2011, dated 2019).
# “Also recorded” adds a separate entry of the source.
# Assays:
# [1] = system: KS483 mouse osteoprogenitor cells; assay: Osteoblast differentiation assay (cellular ALP activity at day 8); format: cell-based
# Procedure: In the third part, KS483 mouse osteoprogenitor cells were cultured for 8 days, after which the formed mature osteoblasts were quantitated by measuring the amount of intracellular alkaline phosphatase (ALP) activity. […] The effects on osteoblasts were studied using KS483 mouse osteoprogenitor cells that can be induced to differentiate into bone-forming osteoblasts. […] In the osteoblast differentiation assay, the cells were cultured for 8 days, after which the formed mature osteoblasts were quantitated by measuring the amount of intracellular alkaline phosphatase (ALP) activity. […] A culture system was established that can be used as an in vitro model for studying the effects of anabolic and estrogen-like compounds on osteoblast differentiation and activity. In this culture system mouse KS483 cells first proliferate and then differentiate into osteoblasts capable of forming mineralized bone nodules in the presence of ascorbic acid and ß-glycerophosphate (Fagerlund et al. 2009). The test and reference compounds are added into the cell cultures concomitantly with the medium change, and their effects on the differentiation and activity of osteoblasts are determined. Cellular ALP, a marker of osteoblast differentiation, is determined from the cell lysates as described earlier (Lowry et al. 1954). Secreted PINP, a marker of organic bone matrix formation, is determined from the culture medium using a commercially available method (Rat/Mouse PINP EIA, IDS Ltd, Boldon, UK). Calcium deposition, an index of inorganic bone matrix formation, is measured using a commercially available calcium assay (Roche Diagnostics). Mouse KS483 cells were cultured in T-75 tissue culture flasks in aMEM supplemented with 10% charcoal-stripped fetal bovine serum until 80-90% confluence. The cells were incubated in a CO2 incubator in humidified atmosphere of 95% air and 5% carbon dioxide at 37° C. After reaching 80-90% confluence, subcultures were prepared. Cells were removed from the flasks with trypsin treatment and counted. For induction of the maturation of osteoblasts and bone formation, the immature osteoblastic cells were plated in type I collagen-coated 96-well plates. The cells were cultured for 8 days with a supplement of ascorbic acid ([…]), and half of the media was changed every 3-4 days. The test compound and control substance (E2) were added in the beginning of the culture period and when the medium was changed. The cultures were stopped at day 8 by removing the culture media from the wells, and cell lysates were prepared. Cellular ALP activity and total protein content (Protein Assay, Bio-Rad Laboratories Inc, CA, USA) were quantitated by using VICTOR2™ Multilabel Counter (PerkinElmer, Waltham, Mass., USA).
# [2] = system: rat ovariectomy (OVX) model; assay: Short-term effects on body weight, uterine weight and bone turnover markers in the rat ovariectomy (OVX) model; format: in vivo, rat (Sprague-Dawley); design: key to Body weight, change during the first week / Body weight, change during the in-life phase / Relative uterine weight at day 14 / Serum PINP levels, change during the in-life phase / Serum OC levels, change during the in-life phase / Serum CTX levels, change during the in-life phase / Serum TRACP 5b activity, change during the in-life phase: An upwards arrow (↑) indicates a statistically significant increase; a downwards arrow (↓) a statistically significant decrease; One asterisk (*) indicates a statistical significance with a p-value<0.05; two asterisks (**) with a p-value<0.01; three asterisks (***) with a p-value<0.001; NS=Non-significant; conditions: for Body weight, change during the first week / Body weight, change during the in-life phase / Relative uterine weight at day 14 / Serum CTX levels, change during the in-life phase / Serum OC levels, change during the in-life phase / Serum PINP levels, change during the in-life phase / Serum TRACP 5b activity, change during the in-life phase: OVX rats vs OVX vehicle
# From the text: The objective of this study was to investigate short-term effects of Compound 1 on biochemical serum markers of bone metabolism in a prevention study in a rat ovariectomy (OVX) model for postmenopausal osteoporosis. 17β-estradiol (E2) was used as a reference compound. The following five experimental groups were included in the study:
# Each group contained eight female rats (Sprague-Dawley) that were three months of age at the beginning of in-life phase of the study. Before the start of the in-life phase, animals were weighed, their blood samples were harvested, and animals were randomized to study groups by stratification according to body weight and serum levels of procollagen type I N-terminal propeptide (PINP). At the beginning of the in-life phase, animals were weighed and operated. Treatment was started one day after the operations and continued once a day for two weeks. Sterile water was used as vehicle in groups 1 and 2. Body weight was determined after one week of treatment and treatment doses were adjusted accordingly. After two weeks of treatment, animals were weighed, their blood samples were harvested, animals were terminated, and their relative uterine weight was determined. For analyzing short-term effects of treatments, levels of four bone metabolism biomarkers were determined in serum samples harvested before the start and at the end of the in-life phase. These biomarkers included PINP as a marker of bone formation, N-terminal mid-fragment of osteocalcin (OC) as a general marker of bone turnover, C terminal cross-linked telopeptides of type I collagen (CTX) as a marker of bone resorption, and tartrate-resistant acid phosphatase isoform 5b (TRACP 5b) as a marker of osteoclast number. Serum levels at day −7 were used as baseline levels and serum levels at day 14 as levels affected by operations and treatments.
# Each group contained eight female rats (Sprague-Dawley) that were three months of age at the beginning of in-life phase of the study. Animals were randomized to study groups by stratification according to their body weight and serum levels of procollagen type I N-terminal propeptide (PINP) measured one week before the start of the in-life phase (at day −7). At the beginning of the in-life phase (at day 0), animals were weighed, animals in groups 2-5 were ovariectomized, and animals in group 1 SHAM-operated. Treatment was started one day after the operations and continued once a day for two weeks (up to day 13). Sterile water was used as vehicle in groups 1 and 2. Body weight was determined at the beginning of the in-life phase (at day 0), one week after the start of the inlife phase (at day 7), and at the end of the in-life phase (at day 14). Treatment doses were adjusted according to the latest body weight obtained. After two weeks of treatment (at day 14), animals were weighed, their blood samples were harvested, animals were terminated, and their relative uterine weight was determined. For analyzing short-term effects of treatments, levels of four bone metabolism biomarkers were measured in serum samples harvested before the start of the in-life phase (at day −7) and at the end of the in-life phase (at day 14). These biochemical serum markers included PINP, N-terminal mid-fragment of osteocalcin (OC), C-terminal cross-linked telopeptides of type I collagen (CTX), and tartrate-resistant acid phosphatase isoform 5b (TRACP 5b). Serum levels obtained at day −7 were used as baseline levels and serum levels obtained at day 14 as levels affected by surgical operations and treatments.
# Biochemical markers of bone metabolism are useful tools for monitoring osteoporosis therapy and for prediction of fracture risk and long-term changes in bone mineral density (Cremers et al. 2008). […]
# [3] = OVX rats, Compound 1 oral dose of 3 mg/kg/d, two weeks
# [4] = OVX rats, Compound 1 oral doses of 1 and 3 mg/kg/d, two weeks
compound,measurement,setting,value
"COc1cc2nccc(Oc3ccc(NC(=O)C4(C(=O)Nc5ccc(F)cc5)CC4)cc3)c2cc1OC [Compound 1, N-(4-{[6,7-bis(methyloxy)quinolin-4-yl]oxy}phenyl)-N′-(4-fluorophenyl)cyclopropane-1,1-dicarboxamide]",ALP values / osteoblast differentiation,[1]; 3.0 μM,decreased; also recorded: inhibitory effects
same,ALP values / osteoblast differentiation,"[1]; 0.012, 0.037, 0.11, 0.33 and 1.0 μM",increased; also recorded: dose-dependent stimulation
same,activity at 0.004 µM,"[1]; Mus musculus, Osteoblast, 192 h, 0.004 μM Compound 1, read-out: ALP Activity at Day 8, Percent Activity (%) Compared to BL",109%
same,activity at 0.012 µM,"[1]; Mus musculus, Osteoblast, 192 h, 0.012 μM Compound 1, read-out: ALP Activity at Day 8, Percent Activity (%) Compared to BL",113%
same,activity at 0.037 µM,"[1]; Mus musculus, Osteoblast, 192 h, 0.037 μM Compound 1, read-out: ALP Activity at Day 8, Percent Activity (%) Compared to BL",134%
same,activity at 0.11 µM,"[1]; Mus musculus, Osteoblast, 192 h, 0.11 μM Compound 1, read-out: ALP Activity at Day 8, Percent Activity (%) Compared to BL",181%
same,activity at 0.33 µM,"[1]; Mus musculus, Osteoblast, 192 h, 0.33 μM Compound 1, read-out: ALP Activity at Day 8, Percent Activity (%) Compared to BL",166%
same,activity at 1 µM,"[1]; Mus musculus, Osteoblast, 192 h, 1.0 μM Compound 1, read-out: ALP Activity at Day 8, Percent Activity (%) Compared to BL",117%
same,activity at 3 µM,"[1]; Mus musculus, Osteoblast, 192 h, 3.0 μM Compound 1, read-out: ALP Activity at Day 8, Percent Activity (%) Compared to BL",57%
same,"Body weight, change during the first week",[2]; cabozantinib 1 mg/kg/d p.o.,↓ *
same,"Body weight, change during the in-life phase",[2]; cabozantinib 1 mg/kg/d p.o.,↓ *
same,Relative uterine weight at day 14,[2]; cabozantinib 1 mg/kg/d p.o.,NS
same,"Serum CTX levels, change during the in-life phase",[2]; cabozantinib 1 mg/kg/d p.o.,NS
same,"Serum OC levels, change during the in-life phase",[2]; cabozantinib 1 mg/kg/d p.o.,NS
same,"Serum PINP levels, change during the in-life phase",[2]; cabozantinib 1 mg/kg/d p.o.,NS
same,"Serum TRACP 5b activity, change during the in-life phase",[2]; cabozantinib 1 mg/kg/d p.o.,NS
same,"Body weight, change during the first week",[2]; cabozantinib 3 mg/kg/d p.o.,NS
same,"Body weight, change during the in-life phase",[2]; cabozantinib 3 mg/kg/d p.o.,NS
same,Relative uterine weight at day 14,[2]; cabozantinib 3 mg/kg/d p.o.,NS
same,"Serum CTX levels, change during the in-life phase",[2]; cabozantinib 3 mg/kg/d p.o.,NS
same,"Serum OC levels, change during the in-life phase",[2]; cabozantinib 3 mg/kg/d p.o.,NS
same,"Serum PINP levels, change during the in-life phase",[2]; cabozantinib 3 mg/kg/d p.o.,↑ *
same,"Serum TRACP 5b activity, change during the in-life phase",[2]; cabozantinib 3 mg/kg/d p.o.,↓ *
same,OVX-induced gain in body weight,"[2]; OVX rats, Compound 1 oral dose of 1 mg/kg/d, two weeks",partially prevented
same,OVX-induced increase in serum PINP levels,[2]; [3],enhanced
same,OVX-induced reduction in serum TRACP 5b activity,[2]; [3],enhanced
same,OVX-induced increase in serum CTX levels,[2]; [4],did not affect
same,OVX-induced increase in serum OC levels,[2]; [4],did not affect
same,OVX-induced reduction in relative uterine weight,[2]; [4],did not affect
